Laboratory results taken from PubChem BioAssay (NCI).
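The compound was tested at five concentrations on cells cultured in 96-well plates, with a 48-hour exposure period. TGI: total growth inhibition.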

What was measured:
Assay in all cases: growth of human tumour cells (NCI), 48 h
786-0 renal = test system: 786-0 renal
A498 renal = test system: A498 renal
A549 NSCLC = test system: A549 NSCLC
ACHN renal = test system: ACHN renal
CAKI-1 renal = test system: CAKI-1 renal
CCRF-CEM leukemia = test system: CCRF-CEM leukemia
COLO 205 colon = test system: COLO 205 colon
DLD-1 colon = test system: DLD-1 colon
DMS 114 small cell lung = test system: DMS 114 small cell lung
DMS 273 small cell lung = test system: DMS 273 small cell lung
HCC-2998 colon = test system: HCC-2998 colon
HCT-116 colon = test system: HCT-116 colon
HCT-15 colon = test system: HCT-15 colon
HL-60(TB) leukemia = test system: HL-60(TB) leukemia
HOP-62 NSCLC = test system: HOP-62 NSCLC
HOP-92 NSCLC = test system: HOP-92 NSCLC
HT29 colon = test system: HT29 colon
IGROV1 ovarian = test system: IGROV1 ovarian
K-562 leukemia = test system: K-562 leukemia
KM12 colon = test system: KM12 colon
LOX IMVI melanoma = test system: LOX IMVI melanoma
LXFL 529 NSCLC = test system: LXFL 529 NSCLC
M14 melanoma = test system: M14 melanoma
M19-MEL melanoma = test system: M19-MEL melanoma
MALME-3M melanoma = test system: MALME-3M melanoma
MOLT-4 leukemia = test system: MOLT-4 leukemia
NCI-H23 lung = test system: NCI-H23 lung
NCI-H460 lung = test system: NCI-H460 lung
NCI-H522 lung = test system: NCI-H522 lung
OVCAR-3 ovarian = test system: OVCAR-3 ovarian
OVCAR-5 ovarian = test system: OVCAR-5 ovarian
OVCAR-8 ovarian = test system: OVCAR-8 ovarian
RXF-631 renal = test system: RXF-631 renal
SF-268 CNS = test system: SF-268 CNS
SF-295 CNS = test system: SF-295 CNS
SK-MEL-2 melanoma = test system: SK-MEL-2 melanoma
SK-MEL-28 melanoma = test system: SK-MEL-28 melanoma
SK-OV-3 ovarian = test system: SK-OV-3 ovarian
SN12C renal = test system: SN12C renal
SNB-19 CNS = test system: SNB-19 CNS
SNB-75 CNS = test system: SNB-75 CNS
SNB-78 CNS = test system: SNB-78 CNS
SR leukemia = test system: SR leukemia
SW-620 colon = test system: SW-620 colon
TK-10 renal = test system: TK-10 renal
U251 CNS = test system: U251 CNS
UACC-257 melanoma = test system: UACC-257 melanoma
UACC-62 melanoma = test system: UACC-62 melanoma
UO-31 renal = test system: UO-31 renal
XF 498 CNS = test system: XF 498 CNS
KM20L2 colon = test system: KM20L2 colon
NCI-H226 lung = test system: NCI-H226 lung
OVCAR-4 ovarian = test system: OVCAR-4 ovarian
RPMI-8226 leukemia = test system: RPMI-8226 leukemia
RXF 393 renal = test system: RXF 393 renal
SF-539 CNS = test system: SF-539 CNS
SK-MEL-5 melanoma = test system: SK-MEL-5 melanoma
EKVX NSCLC = test system: EKVX NSCLC
HOP-18 NSCLC = test system: HOP-18 NSCLC

Measured: TGI

O=C1C2C(C(=O)N1c1ccccc1)C1([N+](=O)[O-])C=C3c4ccccc4N(C(=O)c4ccccc4)C32C2C(=O)N(c3ccccc3)C(=O)C21 (configuration not stated)
not listed: KM20L2 colon | NCI-H226 lung | OVCAR-4 ovarian | RPMI-8226 leukemia | RXF 393 renal | SF-539 CNS | SK-MEL-5 melanoma | EKVX NSCLC | HOP-18 NSCLC
> 100 µM: all other assays above

Cc1cccc(C(C)(C)C)c1NC(=O)CCc1nc(=S)[nH][nH]1
not listed: SR leukemia | EKVX NSCLC | HOP-18 NSCLC
> 100 µM: all other assays above

NC1=NN(c2ccccc2)C(=O)C1C(=O)C(=O)Nc1nccs1 (configuration not stated)
not listed: XF 498 CNS
> 100 µM: all other assays above

CN(C)c1snc2c1c(=O)n(C)c(=O)n2C
not listed: HOP-92 NSCLC | KM12 colon | M14 melanoma | SNB-78 CNS | SR leukemia | RXF 393 renal
> 100 µM: all other assays above
